Reference: patent publication US6933272B1 (priority 1998, dated 2005)
Entries after “also recorded” stand apart in the source; their conditions may differ. Like-named read-outs stand apart in the source and are kept apart here.

What was measured:
[1] = system: 3T3L1 adipocyte cells; test: Glucose transport (3H-deoxyglucose uptake) in 3T3L1 adipocyte cells; type: cell-based, mouse; conditions: for effect of compound alone on glucose transport: basal, no insulin
Experimental: Glucose transport was determined using a modification of the method of S. J. Isakoff et at. (23). The assay involved measuring the effect of compounds on the uptake of ^3H-deoxyglucose into 3T3L1 adipocyte cells.
The cell line, 3T3-L1, derived from mouse embryo fibroblasts, was grown in 250 mL tissue culture flasks containing 15 mL medium made up of DMEM (Dulbecco's modified Eagle's medium containing glutamine, 2 mM; sodium bicarbonate, 30 mM; penicillin 71.5 mg/litre; streptomycin, 152.5 mg/litre) supplemented with 10% foetal calf serum (FCS), pH 7.4. Cells were maintained in a humidified incubator at 37° C. in a 5% CO2 environment. The medium was changed every 3 days and the cells were split when they were about 70-80% confluent.
3T3-L1 fibroblast cells from one tissue culture flask were suspended in 50 mL of DMEM media containing 10% FCS and 0.5 mL of this suspension were seeded into each well of two 48-well tissue culture plates. The differentiation of the cells was initiated when the fibroblast cells were fully confluent. Routinely, differentiation was induced on cells that had been growing in tissue culture plates for 4-5 days. […] The cells were subsequently maintained with DMEM medium containing 10% FCS.
One day prior to the glucose transport assay, cell medium was replaced with DMEM containing 10% charcoal-treated foetal calf serum (CTFCS). On the day of the assay, the medium was aspirated and each well was washed with 1 mL of 25 mM Hepes, pH 7.4 containing 0.9% NaCl (NaCl-HEPES). […] Ten microlitres of NaCl-HEPES containing 3 mM 2-deoxy-D-glucose and 0.1 μCi 2-deoxy-D-[1-^3H]glucose were then added. Following a 10 min incubation at 37° C., the medium was aspirated off and the wells rapidly washed three times with 1 mL of ice-cold 50 mM phosphate, pH 7.5 containing 150 mM NaCl (PBS) and 10 mM glucose. Two hundred microlitres of 3% Triton X-100 was then added to each well and left to incubate for a minimum of 10 minutes. One hundred microlitres of the solubilised cells was then added to 2.5 mL of liquid scintillation fluid and counted for radioactivity in a Beckman β-counter.

[2] = target: T1, insulin receptor (Homo sapiens, UniProt P06213); test: Assays of insulin action (several biological assays, classification agonist/antagonist)
Target sequence in this assay (P06213 with tags, fused parts or gaps): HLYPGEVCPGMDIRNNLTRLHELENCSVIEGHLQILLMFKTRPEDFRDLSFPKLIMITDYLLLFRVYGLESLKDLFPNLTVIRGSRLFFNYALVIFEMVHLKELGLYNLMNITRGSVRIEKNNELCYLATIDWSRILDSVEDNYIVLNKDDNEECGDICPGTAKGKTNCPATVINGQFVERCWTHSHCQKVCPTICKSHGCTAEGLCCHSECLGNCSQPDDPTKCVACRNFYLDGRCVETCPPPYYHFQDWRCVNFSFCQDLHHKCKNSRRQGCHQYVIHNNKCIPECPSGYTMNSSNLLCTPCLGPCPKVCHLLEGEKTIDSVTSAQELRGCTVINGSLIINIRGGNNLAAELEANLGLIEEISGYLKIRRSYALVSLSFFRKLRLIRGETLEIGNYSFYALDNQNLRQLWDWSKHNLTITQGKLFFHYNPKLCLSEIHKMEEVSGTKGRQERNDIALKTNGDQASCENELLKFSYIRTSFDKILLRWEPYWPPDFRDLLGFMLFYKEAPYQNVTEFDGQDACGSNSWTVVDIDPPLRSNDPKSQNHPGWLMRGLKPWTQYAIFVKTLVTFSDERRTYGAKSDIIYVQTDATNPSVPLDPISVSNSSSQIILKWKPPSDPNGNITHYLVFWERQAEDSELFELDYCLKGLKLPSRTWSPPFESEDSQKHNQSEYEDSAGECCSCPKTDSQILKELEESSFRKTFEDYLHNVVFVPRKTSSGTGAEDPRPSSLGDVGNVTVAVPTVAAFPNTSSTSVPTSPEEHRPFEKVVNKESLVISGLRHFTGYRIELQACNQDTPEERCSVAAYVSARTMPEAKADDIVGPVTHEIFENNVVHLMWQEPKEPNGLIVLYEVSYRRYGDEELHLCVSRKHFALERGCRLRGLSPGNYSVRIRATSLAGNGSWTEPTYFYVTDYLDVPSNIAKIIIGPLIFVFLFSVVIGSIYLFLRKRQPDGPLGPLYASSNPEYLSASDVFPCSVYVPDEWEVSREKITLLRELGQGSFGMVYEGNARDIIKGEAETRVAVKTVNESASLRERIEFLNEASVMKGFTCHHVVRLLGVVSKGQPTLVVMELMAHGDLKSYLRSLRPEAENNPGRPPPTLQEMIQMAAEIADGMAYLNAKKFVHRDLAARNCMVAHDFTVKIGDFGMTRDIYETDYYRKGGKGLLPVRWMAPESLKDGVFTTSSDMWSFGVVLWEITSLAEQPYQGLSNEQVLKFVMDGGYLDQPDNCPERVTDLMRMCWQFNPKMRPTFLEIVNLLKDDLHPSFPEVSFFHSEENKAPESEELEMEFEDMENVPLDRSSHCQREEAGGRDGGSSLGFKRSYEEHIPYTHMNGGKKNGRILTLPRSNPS

[3] = target: T2, insulin receptor β-subunit (Homo sapiens, UniProt P06213); test: Insulin receptor autophosphorylation (32P into 90 kDa band); type: biochemical
T2 construct: expressed in transfected cells
T2 sequence (P06213 28-758): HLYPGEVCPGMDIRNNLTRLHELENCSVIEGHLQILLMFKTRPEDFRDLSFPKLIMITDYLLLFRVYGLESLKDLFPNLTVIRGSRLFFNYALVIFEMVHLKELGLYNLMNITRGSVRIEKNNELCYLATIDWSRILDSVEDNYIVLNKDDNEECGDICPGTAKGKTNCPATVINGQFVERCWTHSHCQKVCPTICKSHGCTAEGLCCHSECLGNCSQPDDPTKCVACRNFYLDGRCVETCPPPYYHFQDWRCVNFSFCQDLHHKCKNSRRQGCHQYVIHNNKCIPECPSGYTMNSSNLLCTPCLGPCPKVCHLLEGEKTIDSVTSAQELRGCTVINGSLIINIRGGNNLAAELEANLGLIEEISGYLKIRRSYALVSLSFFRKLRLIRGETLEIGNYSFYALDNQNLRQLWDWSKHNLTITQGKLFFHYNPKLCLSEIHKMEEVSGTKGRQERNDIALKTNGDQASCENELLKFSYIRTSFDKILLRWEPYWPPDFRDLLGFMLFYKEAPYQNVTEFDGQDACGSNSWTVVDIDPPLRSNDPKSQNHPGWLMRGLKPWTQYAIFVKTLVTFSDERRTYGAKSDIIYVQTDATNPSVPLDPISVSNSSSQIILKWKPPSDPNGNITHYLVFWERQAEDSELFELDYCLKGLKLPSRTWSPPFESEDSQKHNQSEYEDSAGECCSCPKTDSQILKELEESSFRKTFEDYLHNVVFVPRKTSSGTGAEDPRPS
T2 sequence (P06213 763-1382): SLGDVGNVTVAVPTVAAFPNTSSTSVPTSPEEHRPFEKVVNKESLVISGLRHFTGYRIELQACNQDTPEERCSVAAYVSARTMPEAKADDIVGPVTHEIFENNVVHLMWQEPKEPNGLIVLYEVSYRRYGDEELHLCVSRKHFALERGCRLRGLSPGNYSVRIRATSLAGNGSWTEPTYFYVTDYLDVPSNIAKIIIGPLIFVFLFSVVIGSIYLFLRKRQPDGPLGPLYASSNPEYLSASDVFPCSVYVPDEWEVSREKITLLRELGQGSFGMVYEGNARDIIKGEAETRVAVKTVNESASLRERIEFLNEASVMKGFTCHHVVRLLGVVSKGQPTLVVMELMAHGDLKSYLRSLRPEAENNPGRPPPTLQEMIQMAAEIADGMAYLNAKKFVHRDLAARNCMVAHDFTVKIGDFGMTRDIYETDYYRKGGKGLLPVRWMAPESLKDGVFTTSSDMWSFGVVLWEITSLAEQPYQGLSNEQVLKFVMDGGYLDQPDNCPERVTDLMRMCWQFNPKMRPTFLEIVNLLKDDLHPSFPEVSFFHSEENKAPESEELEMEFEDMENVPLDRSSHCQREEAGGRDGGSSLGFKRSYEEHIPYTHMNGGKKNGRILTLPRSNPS
Experimental: After this preincubation, 2.5 μL of 1 mM ATP, 100 mM sodium orthovanadate and 5 μCi of [γ-^32P]ATP were added and incubated at room temperature for 25 minutes. The reaction was terminated by the addition of 1.5 μL of 0.5 M EDTA and 3.5 μL of 1.5 M NaCl. The solution was then either solubilised and resolved by SDS-PAGE or immunoprecipitated using anti-insulin Rβ (29B4) mouse monoclonal IgG or anti-phosphotyrosine (PY20) mouse monoclonal IgG (Santa Cruz Biotechnology Inc., USA), solubilised and then resolved by SDS-PAGE. Immunoprecipitation was performed by incubating one microgram of antibody with the reaction mixture over night at 4° C. […] The receptor-antibody-Sepharose complex was separated from the supernatant by centrifugation at 7,500 g for 5 minutes. The pellet was washed three times in TBS containing 0.1% Triton X-100 and 10 μL of 0.1 M glycine, pH 3.3 was added. The solution was then solubilised by incubation for 5 minutes at 100° C. in 10 μL of 80 mM Tris-HCl, pH 6.8 containing 0.45 M DTT, 56 mM EDTA, 30% sucrose and 6% SDS. Following centrifugation for 5 minutes at 7,500 g, the supernatant was resolved on a 7.5% SDS polyacrylamide gel. […] In some instances, gel bands corresponding to 90 kDa were excised and the associated radioactivity was measured by suspending the gel band in 2.5 mL of Scintillation fluid (Beckman) using a Beckman β-counter.

[4] = target: T3, IGF-1 receptor (Homo sapiens, UniProt P08069); test: Phosphorylation of immunoprecipitated IGF-1 receptors; type: biochemical; conditions: immunoprecipitated IGF-1 receptors free of insulin receptors
T3 sequence (P08069 31-736 limits assumed): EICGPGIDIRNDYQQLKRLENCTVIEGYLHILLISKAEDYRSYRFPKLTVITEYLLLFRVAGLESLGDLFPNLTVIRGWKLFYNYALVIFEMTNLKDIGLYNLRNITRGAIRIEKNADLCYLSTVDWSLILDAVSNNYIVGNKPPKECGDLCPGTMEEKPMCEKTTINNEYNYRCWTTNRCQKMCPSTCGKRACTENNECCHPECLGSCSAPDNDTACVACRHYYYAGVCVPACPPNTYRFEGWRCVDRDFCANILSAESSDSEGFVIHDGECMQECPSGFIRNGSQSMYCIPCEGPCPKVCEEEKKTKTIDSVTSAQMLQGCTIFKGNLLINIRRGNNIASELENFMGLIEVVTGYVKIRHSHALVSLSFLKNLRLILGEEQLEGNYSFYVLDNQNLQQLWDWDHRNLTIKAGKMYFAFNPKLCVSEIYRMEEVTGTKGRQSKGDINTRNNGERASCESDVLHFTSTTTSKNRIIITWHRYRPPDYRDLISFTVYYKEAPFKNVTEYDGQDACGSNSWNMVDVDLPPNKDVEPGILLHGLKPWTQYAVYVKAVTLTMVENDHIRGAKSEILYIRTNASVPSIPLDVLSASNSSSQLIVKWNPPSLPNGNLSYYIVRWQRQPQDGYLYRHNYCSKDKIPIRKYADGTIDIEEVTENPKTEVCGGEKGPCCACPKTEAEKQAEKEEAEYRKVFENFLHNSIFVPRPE

[5] = target: T3, IGF-1 receptor; test: 125I IGF-1 binding to human placental plasma membranes (HPPM); set-up: from tissue; host or cells: human placenta, plasma membranes; conditions: HPPM
[6] = target: T1, insulin receptor; test: 125I insulin binding to human placental plasma membranes (HPPM); set-up: Human Placental Plasma Membranes—50 mM Hepes, pH 7.8 @ 4 C containing 100 U/mL Bacitracin; from tissue; host or cells: human placenta, plasma membranes; conditions: human placental plasma membranes, 16 h at 4° C.
Experimental: (§1) Tubes were mixed and incubated for 16 h at 4° C. After the incubation, the tubes were placed on ice and 300 μL of a 1:5 suspension of 0.4% bovine-γ-globulin in 20% polyethyleneglycol 6000 (BDH chemicals) was added to each tube, mixed thoroughly and left to incubate for 30 min on ice. The tubes were then centrifuged (3,000 g) for 30 min at 4° C., the supernatant was aspirated off and the pellet counted for radioactivity. […] Inhibition constants were estimated by graphical analysis of displacement plots or calculated using the curve fitting programs EBDA and/or LIGAND.
Target sequence in this assay (P06213 28-758 limits assumed): as the sequence (P06213 28-758) above

[7] = target: insulin receptor β-subunit associated tyrosine kinase activity (Homo sapiens, UniProt P06213); test: Protein tyrosine kinase (PTK) assay, 32P incorporation into FYF peptide; type: biochemical; conditions: for effect of compound alone on 32P incorporation into FYF peptide: basal, absence of insulin
Sequence of insulin receptor β-subunit associated tyrosine kinase activity (P06213 28-758 limits assumed): as the sequence (P06213 28-758) above
Experimental: Protein tyrosine kinase activity was determined using a modification of the method of N. Konstantopoulos (22).
The reaction was allowed to proceed for 20 minutes at 30° C. before it was terminated by the addition of 12.5 μL of 7.5 M guanidine hydrochloride. An aliquot (10 μL) of the reaction mixture was then spotted onto a Whatman 81 phosphocellulose paper (15 mm×15 mm), washed three times (2 min per wash) in about 50 mL of 30% acetic acid, 0.05% orthophosphoric acid then finally, with one wash in about 200 mL of water. The papers were then rinsed briefly (15 sec) in 95% ethanol, dried, suspended in 2.5 mL of scintillation fluid (Beckman) and counted for radioactivity in a Beckman β-counter.

[8] = system: NIH 3T3 HIR3.5 cells; conditions: read-out: half maximal insulin concentration for stimulation of 3H-deoxyglucose; cited from earlier work
[9] = system: IGF-1 receptor; test: 125I IGF-1 binding to human placental plasma membranes (HPPM); conditions: same source of receptors (HPPM)
[10] = target: T1, insulin receptor; test: 125I insulin binding to wheat germ agglutinin purified insulin receptors (WGA.IR); set-up: host or cells: several: placental membranes, CHO.T11 cells, WGA purified receptors; conditions: LIGAND 1-site fit
Experimental: as §1
Target sequence in this assay (P06213 28-758 limits assumed): as the sequence (P06213 28-758) above

[11] = target: T4, IGF-1 receptors (Cricetulus griseus, UniProt A0A8C2N2R2); test: 125I IGF-1 binding to WGA purified receptor preparations from CHO wild-type cells
T4 construct: have high endogenous populations of IGF-1 receptors; endogenous in cells; host or cells: CHO wild-type cells, solubilised, WGA purified
T4 sequence (A0A8C2N2R2 31-1371): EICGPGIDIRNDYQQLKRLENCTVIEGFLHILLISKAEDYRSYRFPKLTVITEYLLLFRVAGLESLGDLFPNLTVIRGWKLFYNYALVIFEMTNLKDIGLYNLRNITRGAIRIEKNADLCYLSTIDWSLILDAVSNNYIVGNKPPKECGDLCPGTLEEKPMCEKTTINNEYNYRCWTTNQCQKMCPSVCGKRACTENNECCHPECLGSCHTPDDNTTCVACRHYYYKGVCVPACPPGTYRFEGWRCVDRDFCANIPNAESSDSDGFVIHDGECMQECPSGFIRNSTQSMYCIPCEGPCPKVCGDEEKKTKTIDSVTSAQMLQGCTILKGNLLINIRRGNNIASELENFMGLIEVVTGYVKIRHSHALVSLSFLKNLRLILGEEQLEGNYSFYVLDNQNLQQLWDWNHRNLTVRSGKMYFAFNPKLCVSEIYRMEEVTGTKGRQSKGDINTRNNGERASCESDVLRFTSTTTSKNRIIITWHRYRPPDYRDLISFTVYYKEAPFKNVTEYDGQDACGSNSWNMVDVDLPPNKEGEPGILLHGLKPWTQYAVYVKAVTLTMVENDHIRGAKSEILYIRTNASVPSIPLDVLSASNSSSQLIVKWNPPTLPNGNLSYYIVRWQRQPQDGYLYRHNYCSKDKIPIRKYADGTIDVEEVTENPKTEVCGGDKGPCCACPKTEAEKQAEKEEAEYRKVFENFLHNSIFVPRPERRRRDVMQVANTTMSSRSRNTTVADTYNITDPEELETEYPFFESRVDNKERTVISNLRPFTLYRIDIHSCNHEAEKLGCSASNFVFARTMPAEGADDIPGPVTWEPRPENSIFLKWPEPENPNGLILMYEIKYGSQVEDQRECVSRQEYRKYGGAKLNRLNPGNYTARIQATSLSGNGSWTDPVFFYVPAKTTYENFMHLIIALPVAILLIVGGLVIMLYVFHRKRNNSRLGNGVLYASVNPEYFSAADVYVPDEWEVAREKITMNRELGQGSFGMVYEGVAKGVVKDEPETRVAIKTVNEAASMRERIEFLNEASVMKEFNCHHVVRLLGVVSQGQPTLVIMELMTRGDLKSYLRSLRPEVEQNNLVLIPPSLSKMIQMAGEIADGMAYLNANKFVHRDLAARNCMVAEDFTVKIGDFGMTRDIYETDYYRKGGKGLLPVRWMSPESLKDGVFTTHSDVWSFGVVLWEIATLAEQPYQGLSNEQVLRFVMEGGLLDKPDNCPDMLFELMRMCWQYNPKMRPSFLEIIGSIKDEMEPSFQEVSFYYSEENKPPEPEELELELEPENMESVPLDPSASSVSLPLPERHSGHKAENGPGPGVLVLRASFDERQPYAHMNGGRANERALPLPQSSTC

[12] = system: streptozotocin induced diabetic mice; test: Blood glucose levels in streptozotocin induced diabetic mice; type: in vivo, mouse
Experimental: Six week old male CD-1 mice were injected intra peritoneally with a sterile solution of streptozotocin prepared in 100 mM citrate buffer, pH 4.65 at a dose of 200 mg/kg and an injection volume of 16.7 mL/kg. Mice were housed in a 12 h light/dark cycle and fed a normal chow diet ad libitum. Drinking water was supplemented with 5% sucrose for the first two days following streptozotocin injection before being replaced with tap water thereafter. After 4 days, blood was taken from the saphenous vein of the mice using the method of Hem, A et al. (26). Random non-fasting blood glucose levels were determined on venous blood using an esprit glucometer (Bayer). Mice with blood glucose levels of greater than 15 mmol/L were characterised as diabetic.
Blood glucose levels of mice were determined, followed by an intra peritoneal dose of IM compound dissolved in diluent (1.6% glycerin, 0. 25% m-cresol, pH 6.75). Mice were then bled periodically and whole blood glucose levels were determine using a one-touch esprit glucometer (Bayer).

[13] = target: T1, insulin receptor; test: 125I insulin binding, insulin receptors from a number of sources; set-up: host or cells: several: placental membranes, CHO.T11 cells, WGA purified receptors
Experimental: as §1
Target sequence in this assay (P06213 28-758 limits assumed): as the sequence (P06213 28-758) above

With `Cc1ccc(C(=O)Nc2ccc(S(=O)(=O)O)c3cc(S(=O)(=O)O)cc(S(=O)(=O)O)c23)cc1NC(=O)c1cccc(NC(=O)Nc2cccc(C(=O)Nc3cc(C(=O)Nc4ccc(S(=O)(=O)O)c5cc(S(=O)(=O)O)cc(S(=O)(=O)O)c45)ccc3C)c2)c1` [IM 175, 8,8′-[Carbonylbis[imino-3,1-phenylenecarbonylimino(4-methyl-3,1-phenylene)carbonylimino]]bis-1,3,5-naphthalenetrisulfonic acid] the EC50 ([1]; Mus musculus, 3T3-L1, compound alone, read-out: apparent EC50, stimulation of glucose transport) was about 250 µM, the “effect of compound alone on glucose transport” value (from here on “effect … on glucose transport”) [1] was “levels approaching maximal stimulation by insulin” and the “classification of insulin action” value [2] was “agonists of insulin action”. The “autophosphorylation of insulin receptor β-subunits, efficacy relative to insulin” value ([3]; relative to 100 nM dose of insulin, immunoprecipitated insulin receptors) was “about 65%”, the “effect on IGF-1 receptor phosphorylation” value [4] was “can also stimulate the IGF-1 receptor” and the “effect on IGF-1 receptor phosphorylation” value ([4]; listed as IM175) was “lower potency on IGF-1 receptors than it does on insulin receptors”. It also gave a Ki ([5]; read-out: Ki, competition for 125I IGF-1 binding) of 9 µM and a Ki [6] of 46 to 48 µM.
With “3,4-dihydro-7-[[6-(4-methoxyphenyl)hexenyl]oxy]-8-propyl-2H-1-benzopyran-2-carboxylic acid [IM 172]” the “effect of compound alone on 32P incorporation into FYF peptide” value [7] was “does not increase ^32P incorporation into FYF peptide”, the Ki ([7]; inhibition of insulin stimulation, read-out: estimated inhibition constant, PTK assay) was 80 µM and the Ki ([1]; 3T3L1 cells, 2 nM insulin, read-out: estimated inhibition constant (Ki), glucose transport assay) was 80 µM. For the same molecule, the “effect … on glucose transport” value [1] was “does not activate glucose transport in 3T3L1 cells”, the “classification of insulin action” value [2] was “antagonists of insulin action” and the “effect on 32P incorporation into insulin receptor β-subunit” value ([3]; basal) was “does not increase ^32P incorporation into FYF peptide or the insulin receptor β-subunit”. For the same molecule, the Ki ([6]; read-out: apparent Ki (inhibition constant), competition for 125I insulin binding) was 218 µM.
For “insulin: peptidyl ligand; the most important regulatory hormone involved in maintaining glucose homeostasis”, the EC50 [8] is given as 0.0001 µM.
For `CCCc1c(OCCCOc2ccc(C(C)=O)c(OC)c2CCC)ccc2c1OC(C(=O)O)CC2` (stereo not shown) [IM 129, 7-[3-(4-acetyl-3-methoxy-2-propylphenoxy)propoxy]-3,4-dihydro-8-propyl-2H-1-benzopyran-2-carboxylic acid], the “classification of insulin action” value [2] was “antagonists of insulin action”, the IC50 ([2]; PTK and glucose transport (FIGS. 8 and 9), read-out: apparent IC50 in several biological assays) was 30 to 200 µM and the “apparent Ki for 125I IGF-1 binding relative to Ki for 125I insulin binding” value [9] was “approximately two fold higher”. The Ki ([5]; read-out: apparent Ki, displacement of 125I IGF-1 binding) was 800 to 1300 µM, the Ki [10] was 189 µM and the Ki [6] was 320 to 550 µM.
With `CCc1cc(-c2ccc(F)cc2)c(O)cc1OCCCOc1ccc2c(=O)c3cc(C(=O)O)ccc3oc2c1CCC(=O)O` [IM 140, 3-[4-[7-carboxy-9-oxo-3-[3-[2-ethyl-4-(4-fluorophenyl)-5-hydroxyphenoxy]propoxy]-9H-xanthene]]propanoic acid] the “effect of compound alone on 32P incorporation into FYF peptide” value [7] was “promotes the ATP-dependent phosphorylation of endogenous FYF peptide in a dose dependent manner”, the “effect … on glucose transport” value [1] was “activates glucose transport in 3T3L1 cells” and the “efficacy compared with insulin, glucose transport” value ([1]; compound alone, relative to maximal dose of insulin (100 nM)) was 25-40%. The EC50 ([1]; compound alone, read-out: apparent EC50, stimulation of glucose transport) was 20 to 30 µM, the EC50 ([1]; read-out: apparent EC50, glucose transport with sub-maximal insulin, in presence of 2 nM insulin) was 8 µM and the “glucose transport, % of maximal efficacy (100 nM insulin)” value ([1]; with 2 nM insulin, compound at 15 μM) was 80%. The “classification of insulin action” value [2] was “agonists of insulin action”, the “effect on 125I IGF-1 binding” value [11] was “does not compete for ^125I IGF-1 binding” and the EC50 in vivo [12] was 15 µmol/kg. The “dose of peak activity, bi-phasic dose response in vivo” value [12] was 20 to 40 µmol/kg, the “effect on blood glucose levels” value ([12]; 100 μmol/kg, preliminary studies) was “does not decrease blood glucose levels” and the “efficacy in lowering blood glucose relative to human insulin” value ([12]; dose of 35 μmol/kg, intra peritoneal) was “about 25%”. For the same molecule, the “effect on 125I IGF-1 binding” value [5] was “does not compete for ^125I IGF-1 binding to HPPM; also recorded: promotes ^125I IGF-1 binding to HPPM”, the “concentration of maximal 125I insulin binding” value [13] was 80 to 100 µM and the EC50 ([13]; read-out: apparent EC50 of increase in 125I insulin binding, low micromolar concentrations) was 10 to 20 µM.
